Data: paper PMC4660442, “Identification of potential inhibitors based on compound proposal contest: Tyrosine-protein kinase Yes as a target” (Scientific Reports, 2015)

Molecular target: T1, tyrosine-protein kinase Yes (Homo sapiens, UniProt P07947)
T1 construct: gene YES1
Experiment: reference inhibitor in ADP-Glo kinase assay, recombinant human Yes; no value given
Assay type: biochemical

T1 sequence (P07947 2-543): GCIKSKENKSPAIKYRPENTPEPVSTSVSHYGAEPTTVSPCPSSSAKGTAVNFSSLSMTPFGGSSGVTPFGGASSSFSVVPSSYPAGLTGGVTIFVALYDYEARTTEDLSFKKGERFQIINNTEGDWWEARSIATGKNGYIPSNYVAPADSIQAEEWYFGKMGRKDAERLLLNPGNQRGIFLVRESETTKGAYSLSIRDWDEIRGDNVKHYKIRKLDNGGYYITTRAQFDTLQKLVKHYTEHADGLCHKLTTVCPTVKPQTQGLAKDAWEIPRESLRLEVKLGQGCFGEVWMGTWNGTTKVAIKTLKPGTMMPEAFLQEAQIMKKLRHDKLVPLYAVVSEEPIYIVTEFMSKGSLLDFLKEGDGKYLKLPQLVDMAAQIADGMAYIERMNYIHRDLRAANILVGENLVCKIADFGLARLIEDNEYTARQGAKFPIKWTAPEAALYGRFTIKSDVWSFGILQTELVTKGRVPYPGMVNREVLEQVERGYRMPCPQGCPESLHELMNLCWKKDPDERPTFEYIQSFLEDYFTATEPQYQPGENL

SMILES: CN[C@@H]1C[C@H]2O[C@@](C)([C@@H]1OC)n1c3ccccc3c3c4c(c5c6ccccc6n2c5c31)C(=O)NC4 [Staurosporine]
- reference inhibitor in ADP-Glo kinase assay, recombinant human Yes; no value pri: Staurosporine, a well-known pan-kinase inhibitor typically used as a reference in kinase assays, was selected as an active inhibitor for Yes
